Measured values as given in patent US6093732A, “4-hydroxyquinoline-3-carboxamides and hydrazides as antiviral agents” (Pharmacia & Upjohn Company, priority 1998, dated 2000).
pIC50: −log10 of the molar value. Structures can show the parent of a compound that is named as a salt.

Molecular target: T1, HCMV polymerase (Human cytomegalovirus, UniProt P08546)
T1 construct: made in house; host or cells: recombinant baculovirus-infected SF-9 cells
Experiment: HCMV polymerase scintillation proximity assay (SPA), modified version
Assay type: biochemical
Details: CMV polymerase; Table 1; modified assay with 4.5 mM DTT, compounds in 100% DMSO; read-out: Antiviral Selective Polymerase IC50 Values, CMV
Method: The HCMV polymerase assay is performed using a scintillation proximity assay (SPA) as described in several references, such as N. D. Cook, et al., Pharmaceutical Manufacturing International, pages 49-53 (1992); K. Takeuchi, Laboratory Practice, September issue (1992); U.S. Pat. No. 4,568,649 (1986); which are incorporated by reference herein. Reactions are performed in 96-well plates. The assay is conducted in 100 μl volume with 5.4 mM HEPES (pH 7.5), 11.7 mM KCl, 4.5 mM MgCl2, 0.36 mg/ml BSA, and 90 nM ^3 H-dTTP. Assays are run with and without CHAPS, (3-[(3-Cholamidopropyl)-dimethylammonio]-1-propane-sulfonate) at a final concentration of 2 mM. HCMV polymerase is diluted in enzyme dilution buffer containing 50% glycerol, 250 mM NaCl, 10 mM HEPES (pH 7.5), 100 μg/ml BSA, and 0.01% sodium azide. The HCMV polymerase, which is expressed in recombinant baculovirus-infected SF-9 cells and purified according to literature procedures, is added at 10% (or 10 μl) of the final reaction volume, i.e., 100 μl. Compounds are diluted in 50% DMSO and 10 μl are added to each well. Control wells contain an equivalent concentration of DMSO. Unless noted otherwise, reactions are initiated via the addition of 6 nM biotinylated poly(dA)-oligo(dT) template/primer to reaction mixtures containing the enzyme, substrate, and compounds of interest. Plates are incubated in a 25° C. or 37° C. H2 O bath and terminated via the addition of 40 μl/reaction of 0.5 M EDTA (pH 8) per well. Reactions are terminated within the time-frame during which substrate incorporation is linear and varied depending upon the enzyme and conditions used, i.e., 30 min. for HCMV polymerase. Ten μl of streptavidin-SPA beads (20 mg/ml in PBS/10% glycerol) are added following termination of the reaction. Plates are incubated 10 min. at 37° C., then equilibrated to room temperature, and counted on a Packard Topcount. Linear regressions are performed and IC50 's are calculated using computer software.
A modified version of the above HCMV polymerase assay is performed as described above, but with the following changes: Compounds are diluted in 100% DMSO until final dilution into assay buffer. In the previous assay, compounds are diluted in 50% DMSO. 4.5 mM dithiotherotol (DTT) is added to the polymerase buffer. […] Other viral polymerase assays are performed using procedures similar to those described above.

T1 sequence (P08546 whole entry): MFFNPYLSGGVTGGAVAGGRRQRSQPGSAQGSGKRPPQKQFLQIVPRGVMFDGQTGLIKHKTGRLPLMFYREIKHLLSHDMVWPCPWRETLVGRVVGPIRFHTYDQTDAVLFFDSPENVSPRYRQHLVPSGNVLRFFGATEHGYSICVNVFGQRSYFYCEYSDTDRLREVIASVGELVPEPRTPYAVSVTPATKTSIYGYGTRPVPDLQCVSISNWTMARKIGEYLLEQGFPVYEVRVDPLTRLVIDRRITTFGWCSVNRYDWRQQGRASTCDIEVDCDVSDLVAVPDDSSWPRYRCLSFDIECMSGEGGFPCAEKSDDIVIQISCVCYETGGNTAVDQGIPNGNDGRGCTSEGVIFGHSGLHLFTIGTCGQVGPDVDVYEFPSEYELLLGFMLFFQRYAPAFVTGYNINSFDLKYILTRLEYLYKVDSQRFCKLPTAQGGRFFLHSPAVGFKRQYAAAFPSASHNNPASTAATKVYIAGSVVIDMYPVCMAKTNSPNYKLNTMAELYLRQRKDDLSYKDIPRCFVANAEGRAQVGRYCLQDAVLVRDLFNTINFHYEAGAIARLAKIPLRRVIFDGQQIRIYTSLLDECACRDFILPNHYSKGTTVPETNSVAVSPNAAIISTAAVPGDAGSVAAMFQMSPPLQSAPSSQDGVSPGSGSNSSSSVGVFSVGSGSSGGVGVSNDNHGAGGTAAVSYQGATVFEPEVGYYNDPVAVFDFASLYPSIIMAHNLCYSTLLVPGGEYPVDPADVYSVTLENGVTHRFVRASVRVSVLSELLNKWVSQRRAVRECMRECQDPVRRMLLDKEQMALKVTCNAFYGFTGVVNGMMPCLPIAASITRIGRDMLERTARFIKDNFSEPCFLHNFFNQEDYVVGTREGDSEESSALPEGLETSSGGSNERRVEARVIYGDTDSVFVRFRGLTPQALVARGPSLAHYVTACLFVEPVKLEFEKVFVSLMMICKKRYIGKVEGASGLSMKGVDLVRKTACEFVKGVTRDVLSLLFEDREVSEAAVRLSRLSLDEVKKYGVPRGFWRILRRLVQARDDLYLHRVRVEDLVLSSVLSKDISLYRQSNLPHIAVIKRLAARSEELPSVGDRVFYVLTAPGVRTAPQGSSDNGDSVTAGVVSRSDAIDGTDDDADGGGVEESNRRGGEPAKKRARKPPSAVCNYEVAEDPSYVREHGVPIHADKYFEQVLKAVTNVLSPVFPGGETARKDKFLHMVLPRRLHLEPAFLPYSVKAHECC

Row | SMILES | pIC50
1 | COCCCc1cc(F)c2ncc(C(=O)NCc3ccc(Cl)cc3)c(O)c2c1 [Example 103, N-(4-Chlorobenzyl)-8-fluoro-4-hydroxy-6-(3-methoxypropyl)-3-quinolinecarboxamide] | 5.60
2 | O=C(NCc1ccc(Cl)cc1)c1cnc2c(F)cc(/C=C\CCO)cc2c1O [Example 104, N-(4-Chlorobenzyl)-8-fluoro-4-hydroxy-6-[(Z)-4-hydroxy-1-butenyl]-3-quinolinecarboxamide] | > 6.11
3 | N#CCCCCCc1cc(F)c2ncc(C(=O)NCc3ccc(Cl)cc3)c(O)c2c1 [Example 105, N-(4-Chlorobenzyl)-6-(5-cyanopentyl)-8-fluoro-4-hydroxy-3-quinolinecarboxamide] | 4.98
4 | O=C(NCc1ccc(Cl)cc1)c1cnc2c(F)cc(C#CCCCO)cc2c1O [Example 107, N-(4-Chlorobenzyl)-8-fluoro-4-hydroxy-6-(5-hydroxy-1-pentynyl)-3-quinolinecarboxamide] | 5.27
5 | CN(CCCc1cc(F)c2ncc(C(=O)NCc3ccc(Cl)cc3)c(O)c2c1)Cc1ccccc1 [Example 108, 6-{3-[Benzyl(methyl)amino]propyl}-N-(4-chlorobenzyl)-8-fluoro-4-hydroxy-3-quinolinecarboxamide] | 5.19
6 | COC(=O)c1cc(F)c2ncc(C(=O)NCc3ccc(Cl)cc3)c(O)c2c1 [Example 109, Methyl 3-{[(4-chlorobenzyl)amino]carbonyl}-8-fluoro-4-hydroxy-6-quinolinecarboxylate] | 4.96
7 | O=C(NCc1ccc(Cl)cc1)c1cnc2c(F)cc(CCCO)cc2c1O [Example 110, N-(4-Chlorobenzyl)-8-fluoro-4-hydroxy-6-(3-hydroxypropyl)-3-quinolinecarboxamide] | 6.55
8 | O=C(NCc1ccc(Cl)cc1)c1cnc2cc(CCCO)ccc2c1O [Example 111, N-(4-Chlorobenzyl)-4-hydroxy-7-(3-hydroxypropyl)-3-quinoline-carboxamide] | 5.59
9 | CCOC(=O)/C=C/c1cc(F)c2ncc(C(=O)NCc3ccc(Cl)cc3)c(O)c2c1 [Example 112, Ethyl (E)-3-(3-{[(4-chlorobenzyl)amino]carbonyl}-8-fluoro-4-hydroxy-6-quinolinyl)-2-propenoate] | 4.85
10 | O=C(O)/C=C/c1cc(F)c2ncc(C(=O)NCc3ccc(Cl)cc3)c(O)c2c1 [Example 113, (E)-3-(3-{[(4-Chlorobenzyl)amino]carbonyl}-8-fluoro-4-hydroxy-6-quinolinyl)-2-propenoic acid] | 4.98
11 | O=C(O)CCc1cc(F)c2ncc(C(=O)NCc3ccc(Cl)cc3)c(O)c2c1 [Example 114, 3-(3-{[(4-Chlorobenzyl)amino]carbonyl}-8-fluoro-4-hydroxy-6-quinolinyl)propanoic acid] | 5.66
12 | O=C(O)CCC#Cc1cc(F)c2ncc(C(=O)NCc3ccc(Cl)cc3)c(O)c2c1 [Example 115, 5-(3-{[(4-Chlorobenzyl)amino]carbonyl}-8-fluoro-4-hydroxy-6-quinolinyl)-4-pentynoic acid] | 5.21
13 | O=C(NCc1ccc(Cl)cc1)c1cnc2ccc3[nH]ncc3c2c1O [Example 116] | 4.78
14 | COc1cc(I)cc2c(O)c(C(=O)NCc3ccc(Cl)cc3)cnc12 [Example 117, N-(4-Chlorobenzyl)-4-hydroxy-6-iodo-8-methoxy-3-quinolinecarboxamide] | 5.06

Further lines, results first:

Row | pIC50 | SMILES
15 | 4.82 | O=C(NCc1ccc(Cl)cc1)c1cnc2c(C(F)(F)F)cc(C#CCO)cc2c1O [Example 121, N-(4-Chlorobenzyl)-4-hydroxy-6-(3-hydroxy-1-propynyl)-8-(trifluoromethyl)-3-quinolinecarboxamide]
16 | 5.74 | O=C(NCc1ccc(Cl)cc1)c1cnc2c(OC(F)(F)F)cc(C#CCO)cc2c1O [Example 122, N-(4-Chlorobenzyl)-4-hydroxy-6-(3-hydroxy-1-propynyl)-8-(trifluoromethoxy)-3-quinolinecarboxamide]
17 | 5.66 | O=C(NCc1ccc(Cl)cc1)c1cnc2c(C(F)(F)F)cc(CCCO)cc2c1O [Example 123, N-(4-Chlorobenzyl)-4-hydroxy-6-(3-hydroxypropyl)-8-(trifluoromethyl)-3-quinolinecarboxamide]
18 | 4.71 | CSCC#Cc1cc(F)c2ncc(C(=O)NCc3ccc(Cl)cc3)c(O)c2c1 [Example 126, N-[(4-Chlorophenyl)methyl]-8-fluoro-4-hydroxy-6-[3-(methylthio)-1-propynyl]-3-quinolinecarboxamide]
19 | 4.63 | CCSCC#Cc1cc(F)c2ncc(C(=O)NCc3ccc(Cl)cc3)c(O)c2c1 [Example 127, N-[(4-Chlorophenyl)methyl]-6-[3-(ethylthio)-1-propynyl]-8-fluoro-4-hydroxy-3-quinolinecarboxamide]
20 | 6.34 | CSC/C=C\c1cc(F)c2ncc(C(=O)NCc3ccc(Cl)cc3)c(O)c2c1 [Example 128, N-[(4-Chlorophenyl)methyl]-8-fluoro-4-hydroxy-6-[(1Z)-3-(methylthio)-1-propenyl]-3-quinolinecarboxamide]
21 | 6.00 | CCSC/C=C\c1cc(F)c2ncc(C(=O)NCc3ccc(Cl)cc3)c(O)c2c1 [Example 129, N-[(4-Chlorophenyl)methyl]-6-[(1Z)-3-(ethylthio)-1-propenyl]-8-fluoro-4-hydroxy-3-quinolinecarboxamide]
22 | 5.96 | CSCCCc1cc(F)c2ncc(C(=O)NCc3ccc(Cl)cc3)c(O)c2c1 [Example 130, N-[(4-Chlorophenyl)methyl]-8-fluoro-4-hydroxy-6-[3-(methylthio)propyl]-3-quinolinecarboxamide]
23 | 5.74 | O=COCC#Cc1cc(F)c2ncc(C(=O)NCc3ccc(Cl)cc3)c(O)c2c1 [Example 131, 3-(3-{[(4-Chlorobenzyl)amino]carbonyl}-8-fluoro-4-hydroxy-6-quinolinyl)-2-propynyl formate]
24 | 6.19 | CC(O)CCc1cc(F)c2ncc(C(=O)NCc3ccc(Cl)cc3)c(O)c2c1 (centres unmarked) [Example 132, N-(4-Chlorobenzyl)-8-fluoro-4-hydroxy-6-(3-hydroxybutyl)-3-quinolinecarboxamide]
25 | 6.11 | O=C(NCc1ccc(Cl)cc1)c1c[nH]c2ccc(/C=C\CO)cc2c1=O [Example 135, N-[(4-Chlorophenyl)methyl]-1,4-dihydro-6-[(1Z)-3-hydroxy-1-propenyl]-4-oxo-3-quinolinecarboxamide]
26 | 6.22 | O=C(NCc1ccc(Cl)cc1)c1cnc2c(F)cc(/C=C\CO)cc2c1O [Example 137, N-(4-Chlorobenzyl)-8-fluoro-4-hydroxy-6-[(Z)-3-hydroxy-1-propenyl]-3-quinolinecarboxamide]
27 | 5.72 | O=CCCc1cc(F)c2ncc(C(=O)NCc3ccc(Cl)cc3)c(O)c2c1 [Example 139, N-(4-Chlorobenzyl)-8-fluoro-4-hydroxy-6-(3-oxopropyl)-3-quinolinecarboxamide]
28 | 5.00 | O=C(NCc1ccc(Cl)cc1)c1cnc2c(F)cc(CO)cc2c1O [Example 141, N-(4-Chlorobenzyl)-8-fluoro-4-hydroxy-6-(hydroxymethyl)-3-quinolinecarboxamide]
29 | 5.52 | O=C(NCc1ccc(Cl)cc1)c1cnc2c(F)cc(C#CCF)cc2c1O [Example 143, N-(4-Chlorobenzyl)-8-fluoro-6-(3-fluoro-1-propynyl)-4-hydroxy-3-quinolinecarboxamide]
